Results on 37 compounds are retold here after patent publication US20220324865A1 (Bayer Aktiengesellschaft, priority 2018, published 2022).

Each structure is given as a SMILES string. pIC50: −log10 of the molar value.

The target in this experiment is T1, human EP3 receptor (Homo sapiens, UniProt P43115).
T1 construct: expressed in transfected cells; host or cells: CHO K1 (Chinese Hamster Ovary), stably co-transfected with Galpha16 and mitochondrial clytin
T1 sequence (P43115 1-390): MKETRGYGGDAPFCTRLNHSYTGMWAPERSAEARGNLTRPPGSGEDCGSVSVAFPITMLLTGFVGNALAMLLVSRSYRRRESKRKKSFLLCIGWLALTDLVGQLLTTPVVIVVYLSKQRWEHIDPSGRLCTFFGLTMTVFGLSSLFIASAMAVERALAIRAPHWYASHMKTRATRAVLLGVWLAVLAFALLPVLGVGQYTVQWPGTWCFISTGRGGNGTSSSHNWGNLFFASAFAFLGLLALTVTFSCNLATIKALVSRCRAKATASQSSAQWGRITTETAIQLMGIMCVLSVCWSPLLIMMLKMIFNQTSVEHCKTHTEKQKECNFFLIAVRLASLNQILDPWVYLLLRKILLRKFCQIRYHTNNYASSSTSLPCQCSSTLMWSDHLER
Description: Cellular in vitro assay for determining EP3 receptor activity (human EP3 cell line, sulprostone-stimulated calcium luminescence). The class given is cell-based. The note with it: CHO cells expressing human EP3 and mitochondrial Clytin; antagonist mode, sulprostone at EC50; read-out: EP3 CHO mtCLY ANTAG IC50. A digest of the protocol: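 CHO K1 cells stably expressing human EP3 with Gα16 and mitochondrial Clytin, loaded overnight with coelenterazine. Compounds added 10 min before sulprostone at its EC50; antagonism read immediately as reduced calcium-driven luminescence, quadruplicate points.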
What is called pIC50 is the IC50 on a negative log10 scale, so that one unit is a factor of ten. As to `Cc1ccc(-c2cn3nc(C(=O)N[C@H](C)C4CC4)c(C4CC4)c3c(=O)[nH]2)cc1Cl` [6-283], the pIC50 was 9.39.

Take `CC(NC(=O)c1nn2cc(-c3ccc4ccccc4c3)[nH]c(=O)c2c1C#N)c1ccc(Cl)cc1Cl` (stereo not shown) [Example 3-58, 3-Cyano-N-[1-(2,4-dichlorophenyl)ethyl]-6-(2-naphthyl)-4-oxo-5H-pyrazolo[1,5-a]pyrazine-2-carboxamide]: the pIC50 was 8.63.

Turning to `Cc1c(C(=O)NC(c2cccc(F)c2)C(F)F)nn2c(C)c(-c3ccc4ccccc4c3)[nH]c(=O)c12` (stereo not shown) [Example 3-72, N-[2,2-Difluoro-1-(3-fluorophenyl)ethyl]-3,7-dimethyl-6-(2-naphthyl)-4-oxo-5H-pyrazolo[1,5-a]pyrazine-2-carboxamide], the pIC50 was 8.68.

On to `CC(NC(=O)c1nn2cc(-c3ccc4ccccc4c3)[nH]c(=O)c2c1C(F)(F)F)c1cnc(OCC(F)(F)F)cn1` (stereo not shown) [Example 1-117, 6-(2-Naphthyl)-4-oxo-N-[1-[5-(2,2,2-trifluoroethoxy)pyrazin-2-yl]ethyl]-3-(trifluoromethyl)-5H-pyrazolo[1,5-a]pyrazine-2-carboxamide], for which the pIC50 is 8.86.

As for `Cc1ccc(-c2cn3nc(C(=O)NC(CO)C(F)(F)F)c(C(F)(F)F)c3c(=O)[nH]2)cc1Cl` (racemic) [6-161], the negative-log IC50 (pIC50) is 8.64.

As for `CC[C@@H](C)NC(=O)c1nn2cc(-c3ccc(C)c(C)c3)[nH]c(=O)c2c1C(C)C` [Example 1-140, N-[(2R)-Butan-2-yl]-6-(3,4-dimethylphenyl)-4-oxo-3-(propan-2-yl)-4,5-dihydropyrazolo[1,5-a]-pyrazine-2-carboxamide], the pIC50 is 8.71.

Turning to `COc1ccc(C2(NC(=O)c3cc4c(=O)[nH]c(-c5ccc6ccccc6c5)cn4n3)CN(C)C2)cn1` [6-63], the pIC50 is 8.15.

As to `Cc1ccc(CNC(=O)c2cc3c(=O)[nH]c(-c4ccc5ccccc5c4)cn3n2)cc1` [Example 2-14, N-(4-Methylbenzyl)-6-(2-naphthyl)-4-oxo-4,5-dihydropyrazolo[1,5-a]pyrazine-2-carboxamide], the pIC50 was 8.90.

With `Cc1cc(-c2cn3nc(C(=O)NC(C)(C)C4CC4)c(C4CC4)c3c(=O)[nH]2)ccc1Cl` [6-301], the pIC50 was 8.85.

Consider `Cn1cnc2cc(-c3cn4nc(C(=O)N[C@@H](c5ccc(F)cc5)C(C)(C)O)c(C5CC5)c4c(=O)[nH]3)ccc21` [6-599], for which the pIC50 was 8.68.

As to `CC(C)c1c(C(=O)NC2(c3ccc(F)cc3)CN(C)C2)nn2cc(-c3ccc(Cl)c(F)c3)[nH]c(=O)c12` [6-538], the pIC50 was 8.56.

Take `O=C(NCC(O)(C(F)(F)F)C(F)(F)F)c1nn2cc(-c3ccc(Cl)c(F)c3)[nH]c(=O)c2c1C1CC1` [6-88]: the pIC50 was 8.34.

On to `Cc1cccc2ncc(-c3cn4nc(C(=O)NC(c5ccc(F)cc5)C(C)C)c(C(C)C)c4c(=O)[nH]3)cc12` (stereo not shown) [Example 4-51, N-[1-(4-Fluorophenyl)-2-methylpropyl]-3-isopropyl-6-(5-methyl-3-quinolyl)-4-oxo-5H-pyrazolo[1,5-a]pyrazine-2-carboxamide], for which the negative-log IC50 (pIC50) is 8.39.

In the case of `CCn1cc(CNC(=O)c2nn3cc(-c4ccc5ccccc5c4)[nH]c(=O)c3c2C(F)(F)F)c(C)n1` [6-496], the pIC50 is 8.92.

For `CCN1CCC(NC(=O)c2nn3cc(-c4ccc(C)c(F)c4)[nH]c(=O)c3c2C2CC2)(C(F)(F)F)C1` (racemic) [6-404], the pIC50 was 8.23.

Consider `O=C(N[C@H](CCO)c1ccc(F)cc1)c1cc2c(=O)[nH]c(-c3ccc(Cl)c(Cl)c3)cn2n1` [6-635], for which the pIC50 is 8.39.

On to `O=C(NC(c1ccc(F)cc1)C1(O)CC1)c1nn2cc(-c3ccc(Cl)c(Cl)c3)[nH]c(=O)c2c1C1CC1` (single isomer, unassigned) [6-423], for which the negative logarithm of the IC50 (pIC50) is 9.21.

Regarding `Cc1cccc2ncc(-c3cn4nc(C(=O)NC(C)c5ccc(Cl)cc5Cl)c(C(C)C)c4c(=O)[nH]3)cc12` (stereo not shown) [Example 4-82, N-[1-(2,4-Dichlorophenyl)ethyl]-3-isopropyl-6-(5-methyl-3-quinolyl)-4-oxo-5H-pyrazolo[1,5-a]pyrazine-2-carboxamide], the pIC50 was 8.20.

With `CN1CCOc2cc(-c3cn4nc(C(=O)N[C@H](CCO)c5ccc(F)cc5)cc4c(=O)[nH]3)ccc21` [Example 1-37, N-[(1R)-1-(4-Fluorophenyl)-3-hydroxopyl]-6-(4-methyl-3,4-dihydro-2H-1,4-benzoxazin-7-yl)-4-oxo-4,5-dihydropyrazolo[1,5-a]pyrazine-2-carboxamide], the pIC50 was 9.02.

Consider `O=C(N[C@H](CCO)c1ccc(F)cc1)c1nn2cc(-c3ccc4ccccc4c3)[nH]c(=O)c2c1C1CC1` [Example 1-144, 3-Cyclopropyl-N-[(1R)-1-(4-fluorophenyl)-3-hydroxypropyl]-6-(naphthalen-2-yl)-4-oxo-4,5-dihydropyrazolo[1,5-a]pyrazine-2-carboxamide], for which the pIC50 was 8.52.

Turning to `CC(C)(O)[C@@H](NC(=O)c1nn2cc(-c3ccc(Cl)c(Cl)c3)[nH]c(=O)c2c1C1CC1)c1ccc(F)cc1` [Example 1-168, 3-Cyclopropyl-6-(3,4-dichlorophenyl)-N-[(1S)-1-(4-fluorophenyl)-2-hydroxy-2-methylpropyl]-4-oxo-4,5-dihydropyrazolo[1,5-a]pyrazine-2-carboxamide], the pIC50 was 8.72.

For the compound `Cc1cc(-c2cn3nc(C(=O)N[C@@H](c4ccc(F)cc4)C(F)(F)CO)c(C(F)(F)F)c3c(=O)[nH]2)ccc1Cl` [Example 1-171, 6-(4-Chloro-3-methylphenyl)-N-[(1S)-2,2-difluoro-1-(4-fluorophenyl)-3-hydroxpropyl]-4-oxo-3-(trifluoromethyl)-4,5-dihydropyrazolo[1,5-a]pyrazine-2-carboxamide], the negative logarithm of the IC50 (pIC50) is 8.99.

Regarding `Cc1nn(C)cc1C(C)NC(=O)c1cc2c(=O)[nH]c(-c3ccc4ccccc4c3)cn2n1` (stereo not shown) [Example 2-5, N-[1-(1,3-Dimethyl-1H-pyrazol-4-yl)ethyl]-6-(2-naphthyl)-4-oxo-4,5-dihydropyrazolo[1,5-a]pyrazine-2-carboxamide], the negative-log IC50 (pIC50) was 8.40.

For the compound `Cc1c(C(=O)N[C@@H](C)c2ccccc2)nn2c(C)c(-c3ccc4ccccc4c3)[nH]c(=O)c12` [Example 3-22, 3,7-Dimethyl-6-(naphthalen-2-yl)-4-oxo-N-[(7S)-1-phenylethyl]-4,5-dihydropyrazolo[1,5-a]pyrazine-2-carboxamide], the pIC50 is 8.63.

With `Cc1ccc(-c2cn3nc(C(=O)NC(c4ccc(C(F)(F)F)cc4)C(C)(C)O)c(C4CC4)c3c(=O)[nH]2)cc1C` (single isomer, unassigned) [6-458], the pIC50 is 8.67.

`CC(NC(=O)c1cc2c(=O)[nH]c(-c3ccc4cccnc4c3)cn2n1)c1ccc(F)c(F)c1` (stereo not shown) [6-28]: the pIC50 was 8.41.

Turning to `CCn1ccc(C(C)NC(=O)c2cc3c(=O)[nH]c(-c4ccc5ccccc5c4)cn3n2)n1` (stereo not shown) [Example 2-54, N-[1-(1-Ethyl-1H-pyrazol-3-yl)ethyl]-6-(2-naphthyl)-4-oxo-4,5-dihydropyrazolo[1,5-a]pyrazine-2-carboxamide], the pIC50 is 8.15.

For `Cc1ccc(-c2cn3nc(C(=O)N[C@@H](c4ccc(F)cc4)C(F)(F)CO)c(C(F)(F)C(F)(F)F)c3c(=O)[nH]2)cc1C` [6-489], the pIC50 was 9.39.

On to `Cc1ccc(-c2cn3nc(C(=O)N[C@@H](c4ccc(F)cc4)C(C)(C)O)c(C4CC4)c3c(=O)[nH]2)cc1C` [6-440], for which the pIC50 was 8.98.

Consider `C[C@H](NC(=O)c1cc2c(=O)[nH]c(-c3ccc4c(c3)N(C)CCO4)cn2n1)c1ccc(F)cc1` [6-83], for which the pIC50 is 8.45.

As to `O=C(NC(c1ccc(F)cc1)C1(O)CC1)c1nn2cc(-c3ccc(Cl)c(F)c3)[nH]c(=O)c2c1C1CC1` (racemic) [6-96], the pIC50 is 9.31.

As for `C[C@@H](NC(=O)c1nn2cc(-c3cc(F)c(Cl)c(F)c3)[nH]c(=O)c2c1C1CC1)C1CC1` [6-473], the pIC50 was 8.48.

In the case of `O=C(NC(c1ccc(F)cc1)C1(O)CC1)c1nn2cc(-c3ccc(Cl)c(F)c3)[nH]c(=O)c2c1C1CC1` (single isomer, unassigned) [6-98], the pIC50 is 9.17.

In the case of `CC(NC(=O)c1cc2c(=O)[nH]c(-c3ccc4ccccc4c3)cn2n1)c1ccc(O)cc1` (stereo not shown) [Example 1-136, N-[1-(4-Hydroxphenyl)ethyl]-6-(2-naphthyl)-4-oxo-5H-pyrazolo[1,5-a]pyrazine-2-carboxamide], the pIC50 was 8.24.

`CCn1ccc(C(C)NC(=O)c2nn3cc(-c4cnc5cccc(C)c5c4)[nH]c(=O)c3c2C(C)C)n1` (stereo not shown) [Example 4-13, N-[1-(1-Ethylpyrazol-3-yl)ethyl]-3-isopropyl-6-(5-methyl-3-quinolyl)-4-oxo-5H-pyrazolo[1,5-a]pyrazine-2-carboxamide]: the negative-log IC50 (pIC50) was 8.84.

As to `Cc1ccc(-c2cn3nc(C(=O)N[C@@H](c4ccc(F)cc4)C(C)(C)O)c(C(F)(F)F)c3c(=O)[nH]2)cc1Cl` [Example 1-151, 6-(3-Chloro-4-methylphenyl)-N-[(1S)-1-(4-fluorophenyl)-2-hydroxy-2-methylpropyl]-4-oxo-3-(trifluoromethyl)-4,5-dihydropyrazolo[1,5-a]pyrazine-2-carboxamide], the pIC50 was 8.94.

Take `COc1ccc2c(c1)C(NC(=O)c1cc3c(=O)[nH]c(-c4ccc5ccccc5c4)cn3n1)CC(C)(C)O2` (stereo not shown) [Example 2-16, N-[6-Methoxy-2,2-dimethyl-3,4-dihydro-2H-chromen-4-yl]-6-(2-naphthyl)-4-oxo-4,5-dihydropyrazolo[1,5-a]pyrazine-2-carboxamide]: the pIC50 was 8.21.
